Consider 1 compound from patent US20150313913A1, “POSITIVE ALLOSTERIC MODULATORS OF THE GABA-A RECEPTOR IN THE TREATMENT OF AUTISM” (UNIVERSITY OF WASHINGTON THROUGH ITS CENTER FOR …, priority 2013, published 2015).

Common to all, as to format: in vivo
In data set [1] the test system is C57BL/6J mice. Put plainly: Elevated plus maze test. To be noted: low doses of clonazepam. The method, then:
(§1) The test was performed as previously described (Han et al., 2012). The maze used in this study has two closed arms (5.1×30 cm) surrounded by 20-cm high non-transparent walls and two open arms (5.1×30 cm). During the 10 min of trial, times spent in closed, center, and open arms, and total distance traveled during the trial were measured by the video-tracking software (EthoVision XT 8.5, Noldus Technology).

Data set [2] relates to BTBR mice. Kind of data set: Elevated plus maze test. As to conditions: 0.05 mg/kg. The method, then: as §1
Data set [3] has as its system C57BL/6J mice. Kind of data set: Open-field reciprocal social interaction test. As to conditions: same treatment. The method, then: (§2) A test mouse and an age- and gender-matched stimulus mouse with a mixed C57BL/6J×129 genetic background were introduced in an open field arena (50×50 cm). Mice were socially naïve with each other. The social interactions of mice were recorded by USB webcam (LifeCam HD-6000, Microsoft) and PC-based video capture software (WinAVI Video Capture, ZJ Media Digital Technology) for 10 min.

Data set [4] concerns BTBR mice. Put plainly: Open-field reciprocal social interaction test. As to conditions: for nose-to-nose interaction with stranger mouse / total (reciprocal) social interaction with stranger mouse: low dose (0.05 mg/kg), Pre/CLZ/Post at one-week intervals, 0.05 mg/kg. The method, then: as §2
For the next data set, the system named is wild-type mice. Kind of data set: Open-field social interaction test. As to conditions: 0.0625 mg/kg, listed as CLZ. The method, then:
(§3) The open-field social interaction test was performed as described previously^64 with minor modifications. The test was performed in the open field arena that was used for the open field test. An age- and gender-matched C57Bl/6J mouse (M) caged in a rectangular wire mesh cage (6×6×10 cm), was used as a social cue. The stranger mouse had never been exposed to the test mouse. The test mouse was placed in the open field arena with an empty wire cage for 10 min for habituation. Following the 10 min session, a stranger mouse was placed in the same cage and the test mouse was allowed to explore the arena for another 10 min. The empty cage or caged stranger mouse was placed in the center of one quadrant of the arena, and immobilized on the floor of the arena with double-sided tape. […] The movement of the mouse was recorded with a USB webcam (LIFECAM™ HD-6000, MICROSOFT™) and PC-based video-capture software (WINAVI™ Video Capture, ZJ MEDIA DIGITAL TECHNOLOGY™). The recorded video file was further analyzed by off-line video tracking software (ETHOVISION™ XT 7.0). Time spent in the cage-containing quadrant, and time spent in the area 5 cm proximal to the cage were measured. Immobilization behavior was also measured by video tracking software. […] All data shown are means±s.e.m. and analyzed using two-way ANOVA with Bonferroni's post hoc analysis. […]

A further data set deals with Scn1a+/− mice. Kind of data set: Open-field social interaction test. To be noted: single i.p. 0.0625 mg/kg 30 min before test, listed as CLZ. The method, then:
as §3

Entries after “also recorded” stand apart in the source; their conditions may differ.

Turning to `O=C1CN=C(c2ccccc2Cl)c2cc([N+](=O)[O-])ccc2N1` [Clonazepam], the “anxiety-like behavior: avoidance of the open arms” value in the data set on C57BL/6J mice [1] is recorded as “little effect”. Further, the “time in open arms (indicator of abnormally low anxiety)” value in the data set with BTBR mice [2] was “changed toward the values for C57BL/6J mice”. Besides, the “sedation (total distance moved during elevated plus maze)” value with BTBR mice [2] (BTBR and C57BL/6J mice (FIG. 43I)) was “did not cause sedation; also recorded: without sedation”. Moreover, the “social interaction and stereotyped behavior” value was “unaffected” in the data set on C57BL/6J mice [3] and “no significant effect” with C57BL/6J mice [3] (listed as CLZ). Besides, the “nose-to-nose interaction with stranger mouse” value with BTBR mice [4] is given as “significantly enhanced”; in the data set with BTBR mice [4] (listed as CLZ), “reversibly increases”. Moreover, the “total (reciprocal) social interaction with stranger mouse” value with BTBR mice [4] is “significantly enhanced”; with BTBR mice [4] (listed as CLZ) it was “reversibly increases”. In addition, the “stereotyped circling behavior in open field with stranger mouse” value in the data set with BTBR mice [4] (low dose (FIG. 8C)) is listed as “reduces”. For the same compound, the figures for the “social interaction, open field social interaction test” value with wild-type mice and with Scn1a+/− mice were “no effect; also recorded: absent; also recorded: not changed” and “completely rescued; also recorded: completely restored; also recorded: completely recovered”, respectively.
